Measured values from PubChem BioAssay (NCI).
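Briefly, cells in 96-well plates were exposed to five compound concentrations for 48 h, and endpoints were estimated by linear interpolation. Here, GI50 denotes the concentration required for 50% inhibition of growth. TGI marks complete inhibition of growth.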

Experiments:
Assay in all cases: NCI-60 cell line screen, 48 h
OVCAR-4 ovarian = tested on: OVCAR-4 ovarian
SK-MEL-28 melanoma = tested on: SK-MEL-28 melanoma
HCT-15 colon = tested on: HCT-15 colon
OVCAR-3 ovarian = tested on: OVCAR-3 ovarian
NCI/ADR-RES ovarian = tested on: NCI/ADR-RES ovarian
A498 renal = tested on: A498 renal
IGROV1 ovarian = tested on: IGROV1 ovarian
MCF7 breast = tested on: MCF7 breast
UACC-257 melanoma = tested on: UACC-257 melanoma
HS 578T breast = tested on: HS 578T breast

| Compound | GI50 (OVCAR-4 ovarian) [µM] | TGI (OVCAR-4 ovarian) [µM] | GI50 (SK-MEL-28 melanoma) [µM] | TGI (SK-MEL-28 melanoma) [µM] | GI50 (HCT-15 colon) [µM] | TGI (HCT-15 colon) [µM] | GI50 (OVCAR-3 ovarian) [µM] | TGI (OVCAR-3 ovarian) [µM] | GI50 (NCI/ADR-RES ovarian) [µM] | TGI (NCI/ADR-RES ovarian) [µM] | GI50 (A498 renal) [µM] | TGI (A498 renal) [µM] | GI50 (IGROV1 ovarian) [µM] | TGI (IGROV1 ovarian) [µM] | GI50 (MCF7 breast) [µM] | TGI (MCF7 breast) [µM] | GI50 (UACC-257 melanoma) [µM] | TGI (UACC-257 melanoma) [µM] | GI50 (HS 578T breast) [µM] | TGI (HS 578T breast) [µM] |
| --- | --- | --- | --- | --- | --- | --- | --- | --- | --- | --- | --- | --- | --- | --- | --- | --- | --- | --- | --- | --- |
| COc1cc2c(cc1OCCCn1c(-c3ccccn3)nc3ccccc31)N=C[C@@H]1CCCN1C2=O | 3.39 | > 42.6 | 5.01 | 11.6 | 2.5 | 9.92 | 2.18 | 5.11 | 2.79 | 7.31 | 3.96 | 14.5 | 1.96 | 4.89 | 0.632 | 3.47 | 2.11 | 9.42 | – | – |
| O=c1[nH]c(=O)n(C2CC(O)C(COP(=O)(OCc3ccc([N+](=O)[O-])o3)N(CCCCCl)CC(O)CO)O2)cc1F (configuration not stated) | > 100 | > 100 | > 100 | > 100 | 4.53 | > 100 | 0.39 | – | 0.781 | > 100 | 0.138 | 39.1 | – | – | < 0.01 | > 100 | 0.0213 | 0.852 | 0.824 | > 100 |
| COc1cc(N2C(=O)[C@H](O)C2c2ccc(SC)cc2)cc(OC)c1OC (some centres not stated) | 0.0275 | > 100 | – | – | 0.0115 | > 100 | < 0.01 | 0.0138 | 0.0166 | > 100 | < 0.01 | 0.0882 | < 0.01 | > 100 | < 0.01 | > 100 | 14.6 | > 100 | < 0.01 | > 100 |
| O=C1c2ccccc2-c2cc([N+](=O)[O-])c([N+](=O)[O-])cc21 | – | 3.31 | – | 8.4 | – | – | – | 1.01 | – | 9.64 | – | 33.1 | – | 2.84 | – | 2.4 | – | 2.74 | – | > 100 |
| O=C1c2c(c3c4ccccc4[nH]c3c3ccc4ccccc4c23)C(=O)N1CCN1CCNCC1 | 1.65 | 3.26 | 1.68 | 3.1 | 1.49 | 2.98 | 1.83 | 3.48 | – | – | 4.19 | 19.6 | 1.46 | 2.84 | 1 | 2.42 | 1.87 | 3.82 | – | – |
| CC(C)C[C@H](NC(=O)CNC(=O)c1cc(Cl)ccc1Cl)B1OC(=O)CC(CC(=O)O)(C(=O)O)O1 (some centres not stated) | 0.0733 | 19 | 0.0345 | 0.191 | 0.0578 | 5.98 | 0.0269 | 0.0791 | 0.368 | > 100 | 0.0347 | 0.164 | 0.231 | > 41.8 | 0.0391 | 43.1 | – | – | 0.0524 | 80.7 |
| CO/N=C(\COc1ccc2c(c1)[nH]c1ccccc12)c1ccc(F)cc1 | 26.1 | > 100 | > 100 | > 100 | > 100 | > 100 | 10.6 | > 100 | 51.8 | > 100 | – | – | 77.3 | > 100 | > 100 | > 100 | 48.7 | > 100 | 23.4 | > 100 |
| CO[C@H]1CC(O[C@@H]2/C(C)=C/C[C@@H]3C[C@@H](C[C@]4(C=C[C@H](C)[C@@H](C5CCCCC5)O4)O3)OC(=O)[C@@H]3C=C(C)[C@@H](O)[C@H]4OC/C(=C\C=C\[C@@H]2C)[C@]43O)O[C@@H](C)C1O[C@H]1C[C@H](OC)[C@@H](O)[C@H](C)O1 (some centres not stated) | 1.52 | 2.88 | 1.58 | 3.03 | – | – | 1.66 | 3.12 | – | – | – | – | – | – | 1.82 | 5.84 | – | – | 2.45 | > 100 |
| O=C1c2cccnc2C(=O)c2c1c(C(=O)NCCCN1CCCCC1)c1ccccn21 | 0.31 | 1.32 | 3.15 | 10.5 | 0.816 | 2.57 | 0.321 | 1.75 | 2.08 | 7.37 | 1.54 | 3.23 | 1.23 | 3.62 | – | – | 0.813 | 2.18 | 2.59 | 9.75 |
| CN(C)CCCn1c(=O)c2ccccc2c2ccccc21 | 22.3 | 70.5 | 21.6 | 46.9 | 13.8 | > 100 | 20.4 | 52.4 | 10.9 | > 100 | 15.7 | 30.6 | – | – | 7.24 | > 100 | 12.6 | 26.6 | 17.8 | 49 |
| Cc1[nH]c2ccccc2c1C(=O)CC1(O)C(=O)Nc2c(Cl)cc(Cl)cc21 (configuration not stated) | – | 21.8 | – | 62 | – | > 100 | – | 44 | – | – | – | 67.4 | – | > 100 | – | – | – | 31.5 | – | – |
| COc1cc2nc(N3CCCC3)nc(NCCc3ccccc3)c2cc1OC | 1.76 | 3.71 | 1.66 | 3.03 | 1.67 | 3.26 | 1.96 | 3.68 | – | – | 1.64 | 3.5 | 1.51 | 2.95 | 1.17 | 2.85 | 1.89 | 3.85 | – | – |
| CN(N=O)C(=O)ON1C(=O)CCC1=O | – | > 100 | – | > 100 | – | > 100 | – | > 100 | – | – | – | > 100 | – | > 100 | – | – | – | > 100 | – | – |
| COC(=O)C1CC2CC(=NNC(N)=O)CC2C1 (configuration not stated) | – | > 100 | – | > 100 | – | > 100 | – | > 100 | – | – | – | > 100 | – | > 100 | – | – | – | > 100 | – | – |
| CCOC(=O)C1=C(C)N(c2ccc(Cl)cc2)[C@]2(C#N)C(O)=C(Cl)C(Cl)=C(O)[C@]12C#N | > 100 | > 100 | > 100 | > 100 | 45.8 | > 100 | 65 | > 100 | – | – | > 100 | > 100 | > 100 | > 100 | > 100 | > 100 | > 100 | > 100 | > 100 | > 100 |
| C1CCC([PH+](C2CCCCC2)C2CCCCC2[PH+](C2CCCCC2)C2CCCCC2)CC1.[Au].[CH-]1CCCCC1CC1CCCC[N-]1 (configuration not stated) | – | – | 0.433 | 1.94 | – | – | 0.318 | 1.2 | 2.86 | > 100 | 0.145 | 0.673 | – | – | – | – | 0.323 | 1.94 | 0.276 | 1.69 |
